PubChem BioAssay AID2060360 (Molecular Pharmacology Branch, DTP, NCI, 2025)

System: 282377-053-R-J1-PDC tumor spheroids, viability
Test: Anticancer human tumor 282377-053-R-J1-PDC patient-derived colon adenocarcinoma cell line growth inhibition [TAK]
Conditions: spheroids with HUVEC and MSC; for IC50: curve of first compound; for viability, T/C: stronger effect = lower value
From the text: Combinatorial screen of targeted agents with TAK-243 and ipatasertib in multi-cell type tumor spheroids
A high-throughput screen of multi-cell type tumor spheroids was designed to identify active combinations of targeted small molecules and TAK-243 or ipatasertib. Complex spheroids include a stromal component modeled by human endothelial cells (HUVEC) and fibroblasts modeled by human mesenchymal stem cells (MSCs). The concentration ranges selected for each drug and investigational agent were based upon clinically achievable concentrations if the clinical Cmax of the agent was known.
Compounds. The drugs and investigational agents: TAK-243 (785004), ipatasertib (767898), everolimus (733504), selumetinib (741078), bortezomib (756655), trametinib (758246), ixazomib (758254), vemurafenib (761431), dabrafenib (764134), sapanisertib (764658), alpelisib (765974), and copanlisib (816437), were obtained from the National Cancer Institute (NCI) Developmental Therapeutics Program Chemical Repository. The FDA-approved anticancer drug set is available from the NCI Developmental Therapeutics Program. […] The stock solutions were prepared in dimethyl sulfoxide (DMSO, Sigma-Aldrich, St. Louis, MO, cat. D2650) at 800-fold the tested concentration and stored at -70 degrees C prior to their use. All drugs and investigational agents were tested over a range starting from a high concentration at or near the clinical Cmax and decreasing in half-log increments. If the clinical Cmax for an agent had not been determined, the highest concentration tested was 10 microM.
NCI60 Cell Culture. NCI60 cell lines were obtained from the NCI Developmental Therapeutics Program Tumor Repository. For each lot of cells, the Repository performed Applied Biosystems AmpFLSTR Identifiler testing with PCR amplification to confirm consistency with the published Identifier STR profile for each cell line. Cells were kept in continuous culture for no more than 20 passages. The optimal seeding densities for each of the cell lines at each time point assessed were determined prior to performing the concentration response studies. Briefly, the NCI60 human tumor lines were grown as monolayers in RPMI 1640 medium supplemented with 10% FBS and 2 mmol/L L-glutamine.
An additional 2 lines were from the NCI60 cell line panel including melanomas, MALME-3M and SK-MEL-2. Pooled donor human umbilical vein endothelial cells (HUVEC, Lonza, cat. CC-2519) and human mesenchymal stem cells (hMSC, Lonza, cat. PT-2501) were purchased from Lonza (Walkersville, MD).
PDMR cell lines were grown in complete medium (DC medium): Dulbecco's modified Eagle's medium (DMEM)/F12 supplemented with 5% fetal bovine serum (FBS), 2 mM L-glutamine, 100 U/mL penicillin and 100 µg/ml streptomycin, 0.4 µg/ml hydrocortisone, 10 ng/ml epidermal growth factor (EGF) recombinant human protein, 24 µg/mL adenine, and 0.1 mg/mL primocin. During culture from frozen stock vials, PDMR cells were cultured in the same medium containing 10 µM Y-27632 (see Table 3). The PDCs were cultured in complete DMEM/F12 media without 10 microM Y-27632 dihydrochloride for at least two passages prior to the screen. The pooled donor HUVEC and hMSC were cultured in endothelial cell growth medium 2 (PromoCell, Heidelberg, Germany, cat. C-22011) and mesenchymal stem cell growth medium 2 (PromoCell, cat. C-28009), respectively. For all experiments, HUVEC and hMSC were used at passages </=5.
For the pre-screen, cell seeding densities were determined from a titration spanning the range from 5,000 to 313 cells per well. The mct-spheroids including 60% malignant cells, 25% HUVEC and 15% MSC dispensed as a mixture into U-bottom Ultra-Low Attachment 384-well plates (Corning, NY)
High-throughput Drug Combination Screening.
Prior to their inoculation into 384-well plates, malignant cells, HUVEC, and hMSC were removed from T flasks using TrypLE express (Thermo Fisher Scientific, cat. 12605036) and harvested by centrifugation for 5 min at 233 x g. […]
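Also: spheroids exposed to drugs for seven days before readout.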

CC(C)(C)c1nc(-c2cccc(NS(=O)(=O)c3c(F)cccc3F)c2F)c(-c2ccnc(N)n2)s1 + CC(C)NCC(C(=O)N1CCN(c2ncnc3c2C(C)CC3O)CC1)c1ccc(Cl)cc1
IC50 (second compound 0.3 µM): > 10 µM | IC50 (second compound 0.949 µM): > 10 µM | IC50 (second compound 3 µM): > 10 µM | IC50 (second compound 9.49 µM): > 10 µM | IC50 (second compound 30 µM): 0.437 µM | viability, T/C (second compound 0.3 µM, first compound 0.0316 µM): 83.5% | viability, T/C (second compound 0.3 µM, first compound 0.1 µM): 81% | viability, T/C (second compound 0.3 µM, first compound 0.316 µM): 79.3% | viability, T/C (second compound 0.3 µM, first compound 1 µM): 72% | viability, T/C (second compound 0.3 µM, first compound 3.16 µM): 71.3% | viability, T/C (second compound 0.3 µM, first compound 10 µM): 63.7% | viability, T/C (second compound 0.949 µM, first compound 0.0316 µM): 78.4% | viability, T/C (second compound 0.949 µM, first compound 0.1 µM): 79.7% | viability, T/C (second compound 0.949 µM, first compound 0.316 µM): 71.9% | viability, T/C (second compound 0.949 µM, first compound 1 µM): 66.5% | viability, T/C (second compound 0.949 µM, first compound 3.16 µM): 59.6% | viability, T/C (second compound 0.949 µM, first compound 10 µM): 57.5% | viability, T/C (second compound 3 µM, first compound 0.0316 µM): 77.7% | viability, T/C (second compound 3 µM, first compound 0.1 µM): 74.8% | viability, T/C (second compound 3 µM, first compound 0.316 µM): 69.9% | viability, T/C (second compound 3 µM, first compound 1 µM): 58.8% | viability, T/C (second compound 3 µM, first compound 3.16 µM): 54.4% | viability, T/C (second compound 3 µM, first compound 10 µM): 53.6% | viability, T/C (second compound 9.49 µM, first compound 0.0316 µM): 71.6% | viability, T/C (second compound 9.49 µM, first compound 0.1 µM): 72.4% | viability, T/C (second compound 9.49 µM, first compound 0.316 µM): 65.5% | viability, T/C (second compound 9.49 µM, first compound 1 µM): 51.2% | viability, T/C (second compound 9.49 µM, first compound 3.16 µM): 47.5% | viability, T/C (second compound 9.49 µM, first compound 10 µM): 52.8% | viability, T/C (second compound 30 µM, first compound 0.0316 µM): 60% | viability, T/C (second compound 30 µM, first compound 0.1 µM): 58.4% | viability, T/C (second compound 30 µM, first compound 0.316 µM): 54.6% | viability, T/C (second compound 30 µM, first compound 1 µM): 36.1% | viability, T/C (second compound 30 µM, first compound 3.16 µM): 35.7% | viability, T/C (second compound 30 µM, first compound 10 µM): 42.6%
